Measurements reported in patent publication US7939554B2, “Protein phosphatase inhibitors” (The Cleveland Clinic Foundation, priority 2006, dated 2011).

Columns and labels:
recombinant SHP-1 = biological target: T1, recombinant SHP-1 (Homo sapiens, UniProt P29350); assay: rapid in vitro SHP-1 PTPase assay (DIFMUP fluorescence substrate); type: biochemical; conditions: L5 and analogs, 1 μg/well; FIG. 12A
T1 construct: Recombinant protein of SHP-1 PTPase catalytic domain was described
T1 sequence (P29350 244-515 limits assumed): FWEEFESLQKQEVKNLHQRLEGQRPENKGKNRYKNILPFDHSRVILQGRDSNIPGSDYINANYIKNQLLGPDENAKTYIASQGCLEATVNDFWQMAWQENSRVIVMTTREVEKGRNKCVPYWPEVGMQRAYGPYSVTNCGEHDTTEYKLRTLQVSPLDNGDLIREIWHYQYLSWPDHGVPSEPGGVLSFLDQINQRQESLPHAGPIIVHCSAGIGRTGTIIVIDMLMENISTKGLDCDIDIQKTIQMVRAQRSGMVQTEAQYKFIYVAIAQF
Description: Recombinant protein of SHP-1 PTPase catalytic domain was described and stored in Tris buffer (25 mM Tris, pH7.5, 1 mM EDTA, 2 μM 2-ME, 25% glycerol) at −80° C. Fluorescence substrate DIFMUP (6,8-difluoro-4 methylumbelliferyl phosphate) was purchased (Molecular Probes). SSG was reported previously (21-23) and stored at 4° C. in darkness prior to use. Human and mouse IFNγ ELISPOT Kit (R & D System), CD4^+ Cell Intracellular IFNγ Detection Kit (BD Bioscience) and CD8^+ Cell Intracellular IFNγ Detection Kit (BD Bioscience) were purchased from commercial sources. Human Jurkat T cell line (26) and murine B16 melanoma cell line (ATCC) were maintained in […] culture medium supplemented with 10% fetal calf serum (FCS). Antibodies against pLck-pY394 (Cell Signaling), pLck-pY505 (Cell Signaling), pZap70 (pY319, BD Biosciences), pSlp76 (pY128, BD Biosciences) and pLat (pY226, BD Biosciences) were purchased from commercial sources.
A rapid SHP-1 PTPase assay was developed for screening the compounds in a commercial library of 34,000 drug-like small chemicals (Chembridge, Mass.). Briefly, compounds of the library (1 μg/well in […]) were placed in 96-well plates (Falcon, 353072) and mixed with recombinant SHP-1 protein (0.1 μg/well) in […] of HEPES buffer (50 mM HEPS, pH 7.5, 150 mM NaCl, 1 mM EDTA, 0.2 mM DTT and 0.1 mg/ml BSA). The plates were incubated at room temperature for 10 minutes prior to the addition of fluorescence substrate DIFMUP (40 μM stock in HEPES buffer, 10 μl/well) to initiate PTPase reaction. Upon completion of PTPase reaction at room temperature for 1 hr in darkness, fluorescence signal of individual wells were recorded using a Vector^2 Multilabel Counter (Vector, CA). They were compared to that of control SHP-1 PTPase reaction (˜10,000 units of fluorescence signal) in the absence of any compound (100%) for calculating relative SHP-1 inhibition induced by the compounds after subtracting the background signal (˜500 units of fluorescence signal) of the substrate.
To evaluate their SHP-1 inhibitory activity, the analogs (1 μg/well in 0.2 μl DMSO) were aliquot individually to 96-well plates (Falcon, 353072) and mixed with recombinant SHP-1 protein (0.1 μg/well) in 90 μl of HEPES buffer (50 mM HEPS, pH 7.5, 150 mM NaCl, 1 mM EDTA, 0.2 mM DTT and 0.1 mg/ml BSA). The plates were incubated at room temperature for 10 minutes prior to the addition of fluorescence substrate DIFMUP (40 μM stock in HEPES buffer, 10 μl/well) to initiate PTPase reaction. Upon completion of PTPase reaction at room temperature for 1 hr in darkness, fluorescence signal of individual wells were recorded using a Vector^2 Multilabel Counter (Vector, CA). […]

[1] = toxicity in mice (viability); type: in vivo, mouse; conditions: 10 mg/kg, daily, s.c., two weeks
Description: FIG. 3 illustrates differential toxicity of L5 and L6. Jurkat cells were cultured in the absence or presence of lead compound #5 (L5) (A) or #6 (L6) (B) for 6 days prior to quantification of cell growth by MTT assays. Data represent mean±SD of triplicate samples. Balb/c mice were treated with L5 (˜10 mg/kg body weight, s. c., daily, M-F/wk) for two weeks to assess its toxicity in vivo (C).
(§1) Spleens were harvested one hour post-treatment on day 4 and processed into splenocytes, which were used for assessing pLck levels by SDS-PAGE/Western blotting and for quantification of IFNγ+ cells by ELISPOT assays. Mice were also treated with L5 (˜10 mg/kg body weight, daily, s. c., n=2) to evaluate the toxicity of the compounds in vivo.

[2] = tested on: spleen pLck and IFNγ+ cells; assay: in vivo induction of spleen pLck and IFNγ+ cells in mice; design: species or system mouse
Description: as §1

B16 melanoma cells = assay: B16 melanoma cell growth in culture (MTT assay); type: cell-based, mouse; conditions: doses up to 10 μg/ml, 5 days
Description: Data represent mean±SD of triplicate samples. […] Tumor volumes were recorded as indicated. C, Athymic nude mice bearing 4-day-established B16 tumors were subjected to differential treatments as in B. Tumor volumes were recorded as indicated.
L5, L6 and L6 analogs (Chembridge), mouse IFNγ ELISPOT Kit (R & D System) and antibody against pLck-pY394 or pERK1/2 (Cell Signaling) were purchased from commercial sources. Human Jurkat T cell line and murine B16 melanoma cell line (ATCC) and other cancer cell lines were maintained in […] culture medium supplemented with 10% fetal calf serum (FCS). The effects of chemical compounds on cancer cell growth in culture were quantified by MTT assays following our established procedures.

[3] = ~3 mg/kg body weight, s.c., daily, 4 days

Description for B16 melanoma tumors: Tumor volume (n=5) was measured during the study period and calculated using the formula for a prolate spheroid. Student's t test was used for assessing the significance of tumor volume differences among differential treatment groups. Mouse viability (daily) and body weights (weekly) were also recorded during the study period. Major internal organs of the mice were inspected visually upon their termination at the end of the experiment.
To assess anti-tumor activity, C57BL/6J mice (˜8-week old, female, Taconic Farms, Germantown, N.Y.) were inoculated (s. c.) at the flanks with B16 melanoma cells (4×10^4 cells/site). […] Tumor volume (n=5) was measured during the study period and calculated using the formula for a prolate spheroid. Student's t test was used for assessing the significance of tumor volume differences among differential treatment groups. Mouse viability (daily) and body weights (weekly) were also recorded during the study period. Major internal organs of the mice were inspected visually upon their termination at the end of the experiment.

O=C1C=CC(=O)C(c2cc(Cl)ccc2Cl)=C1 [L5]
inhibition of phosphatase activity of recombinant SHP-1 (recombinant SHP-1): completely or almost completely inhibited
mouse viability [1]: all alive
B16 tumor growth inhibition versus control (B16 melanoma tumors; 1 mg/kg/daily, M-F/wk, oral, day 22): ~9%
growth inhibition of B16 tumors versus control (B16 melanoma tumors; 3 mg/kg/day, oral, M-F/week, end of study): ~83%
tolerance of treated tumor mice (behavior, gross anatomy) (B16 melanoma tumors; mouse, in vivo): no apparent abnormality
effect on splenocyte pLck in treated mice ([2]; 1 mg/kg of body weight): minor effect
spleen IFNγ+ cells increase in treated mice [2, 3]: approximately 3 fold
splenocyte pLck increase in treated mice [2, 3]: ~3.3 fold
direct toxicity against B16 cells in culture (B16 melanoma cells): little direct toxicity
